The record followed here is patent US20230066156A1, “6-SUBSTITUTED, 22-CYANO HYODEOXYCHOLANIC ANALOGUES AND USES THEREOF” (PRECISION BIO-THERAPEUTICS S.R.L., priority 2019, published 2023).

For one assay, the target named is T1, human GPBAR1 (Homo sapiens, UniProt Q8TDU6).
T1 construct: expressed in transfected cells; host or cells: HEK-293T
T1 sequence (Q8TDU6 1-330): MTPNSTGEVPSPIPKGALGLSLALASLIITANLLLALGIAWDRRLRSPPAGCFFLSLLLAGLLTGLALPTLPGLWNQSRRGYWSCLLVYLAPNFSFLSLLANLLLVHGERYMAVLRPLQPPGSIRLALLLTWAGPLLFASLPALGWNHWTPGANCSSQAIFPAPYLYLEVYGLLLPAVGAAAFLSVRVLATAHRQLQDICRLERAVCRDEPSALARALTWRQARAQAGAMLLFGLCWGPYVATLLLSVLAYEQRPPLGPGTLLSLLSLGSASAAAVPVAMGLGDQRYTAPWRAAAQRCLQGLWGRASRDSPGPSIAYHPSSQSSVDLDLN
The assay can be described thus: GPBAR1 mediated transactivation, CRE-luciferase reporter in transfected HEK-293T cells. In kind it is cell-based. The conditions noted are these: for EC50: HEK-293T CRE-luciferase transactivation; for GPBAR1 (% of activity in comparison to 10 μM TLCA): compound at 10 microM, HEK-293T, TLCA = 100%, triplicate; for GPBAR1/FXR selectivity: ratio between % of activity toward GPBAR1 and % of activity toward FXR. The protocol:
(§1) Selected compounds were tested in vitro on FXR and TGR5/GPBAR1 receptors (Table 1) using a whole cell model transfected with a reporter genes. The activity was evaluated in comparison with chenodeoxycholic acid (CDCA) and TLCA.
(§2) CDCA is a primary bile acid that functions as an endogenous ligand for FXR, while TLCA is a physiological ligand for TGR5/GPBAR1. In this assay, HepG2 cells (a liver-derived cell line) were cultured at 37° C. in minimum essential medium with Earl's salts containing 10% fetal bovine serum (FBS), 1% L-glutamine, and 1% penicillin/streptomycin. HEK-293T cells were cultured at 37° C. in D-MEM containing 10% fetal bovine serum (FBS), 1% L-glutamine, and 1% penicillin/streptomycin. The transfection experiments were performed using Fugene HD according to manufactured specifications. Cells were plated in a 24-well plate at 5×10^4 cells/well. For FXR mediated transactivation, HepG2 cells were transfected with 100 ng of pSG5-FXR, 100 ng of pSG5-RXR, 100 ng of pGL4.70 a vector encoding the human Renilla gene and 250 ng of the reporter vector p(hsp27)-TK-LUC containing the FXR response element IR1 cloned from the promoter of heat shock protein 27 (hsp27).
For GPBAR1 mediated transactivation, HEK-293T cells were transfected with 200 ng of pGL4.29, a reporter vector containing a cAMP response element (CRE) that drives the transcription of the luciferase reporter gene luc2P, with 100 ng of pCMVSPORT6-human GPBAR1, and with 100 ng of pGL4.70 a vector encoding the human Renilla gene. In control experiments HEK-293T cells were transfected only with vectors pGL4.29 and pGL4.70 to exclude any possibility that compounds could activate the CRE in a GPBAR1 independent manner. At 24 h post-transfection, cells were stimulated for 18 h with 10 μM TLCA as a control agent or putative GPBAR1 agonists as the same concentration. After treatments, cells were lysed in 100 μL of lysis buffer (25 mM Tris-phosphate, pH 7.8; 2 mM DTT; 10% glycerol; 1% Triton X-100), and 20 μL of cellular lysate was assayed for luciferase activity using the luciferase assay system. Luminescence was measured using Glomax 20/20 luminometer. Luciferase activities were normalized against Renilla activities. Antagonism against FXR of GPBAR1/TGR5 was measured as percent of activity in transactivation assay suing activity of TLCA as example of agonism.
(§3) The data on the activity of certain compounds of the invention on TGR5/GPBAR1 are described in the following table 1. In this table, activities for compounds of the invention on GPBAR1 was compared to those of the reference compound TLCA. For % of activity, each compound was tested at the concentration of 10 microM and transactivation activity of TLCA on CRE (i.e. TGR5/GPBAR1) was considered equal to 100%. For selectivity toward FXR, activity was assessed in HepG2 cells transfected with an FXR responsive element (IR1) cloned upstream to the luciferase gene. For calculation of efficacy data, maximal transactivation of IR1 caused by each compound (10 μM) was compared to maximal transactivation caused by CDCA (10 μM). GPBAR1/FXR selectivity calculated as ratio between % of activity toward GPBAR1 and % of activity toward FXR. Each experiment was conducted in triplicate.
(In a reporter assay the amount or activity of a reporter protein is the signal.)

The target in a further assay is T2, FXR (Homo sapiens, UniProt Q96RI1).
T2 construct: expressed in transfected cells; host or cells: HepG2
T2 sequence (Q96RI1 1-486): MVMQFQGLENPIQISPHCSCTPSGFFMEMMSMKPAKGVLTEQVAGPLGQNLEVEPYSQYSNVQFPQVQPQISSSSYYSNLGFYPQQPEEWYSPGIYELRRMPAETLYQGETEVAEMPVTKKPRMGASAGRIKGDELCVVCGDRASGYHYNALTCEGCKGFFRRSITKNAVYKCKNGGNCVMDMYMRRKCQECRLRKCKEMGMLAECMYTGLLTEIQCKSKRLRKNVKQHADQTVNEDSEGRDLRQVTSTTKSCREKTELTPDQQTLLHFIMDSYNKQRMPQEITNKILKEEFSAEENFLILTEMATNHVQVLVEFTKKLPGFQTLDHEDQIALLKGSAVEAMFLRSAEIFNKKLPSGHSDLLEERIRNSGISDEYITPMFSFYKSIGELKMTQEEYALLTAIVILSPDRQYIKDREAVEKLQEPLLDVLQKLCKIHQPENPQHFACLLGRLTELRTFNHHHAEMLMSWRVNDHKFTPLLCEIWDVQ
T2 sequence (P19793 1-462 partner): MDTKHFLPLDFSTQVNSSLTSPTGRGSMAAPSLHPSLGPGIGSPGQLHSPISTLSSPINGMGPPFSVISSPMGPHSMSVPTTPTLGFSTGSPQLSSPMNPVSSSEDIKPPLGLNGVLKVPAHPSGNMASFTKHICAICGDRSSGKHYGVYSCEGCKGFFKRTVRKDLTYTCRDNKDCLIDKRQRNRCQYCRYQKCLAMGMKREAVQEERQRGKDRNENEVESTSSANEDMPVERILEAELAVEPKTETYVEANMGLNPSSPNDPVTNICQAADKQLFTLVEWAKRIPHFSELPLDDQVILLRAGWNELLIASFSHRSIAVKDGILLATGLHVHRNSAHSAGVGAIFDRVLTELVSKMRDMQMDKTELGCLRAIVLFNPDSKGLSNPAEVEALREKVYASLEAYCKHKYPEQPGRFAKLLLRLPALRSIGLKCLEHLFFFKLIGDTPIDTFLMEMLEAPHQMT
The experiment in a line: FXR mediated transactivation, IR1 (hsp27)-luciferase reporter in transfected HepG2 cells. The class given is cell-based. As to conditions: compound at 10 μM, HepG2, vs maximal transactivation by CDCA 10 μM, triplicate. The protocol:
as §1, §2, §3

What is called EC50 is the concentration that produces a half-maximal response. Higher therefore signals lower potency in that assay. Turning to `C[C@H](CC#N)[C@H]1CC[C@H]2[C@@H]3C[C@@](C)(O)[C@@H]4C[C@H](O)CC[C@]4(C)[C@H]3CC[C@]12C` [PBT109A, 3α, 6β-dihydroxy-6α-methyl-24-nor-5β-cholan-23-nitrile], on human GPBAR1, the midpoint of the response, the EC50, lay at 0.57 µM; the “GPBAR1 (% of activity in comparison to 10 μM TLCA)” value is 83.4 ± 2.4%; the GPBAR1/FXR selectivity worked out at 15.1. Further, the “FXR (% of activity in comparison to 10 μM CDCA)” value on FXR was determined as 5.5 ± 0.7%.
For `C[C@H](CC#N)[C@H]1CC[C@H]2[C@@H]3C[C@](C)(O)[C@@H]4C[C@H](O)CC[C@]4(C)[C@H]3CC[C@]12C` [PBT109B, 3α,6α-dihydroxy-6β-methyl-24-nor-5β-cholan-23-nitrile], in that order: 6.9 µM, 95.4 ± 0.24%, 14.9 and 6.4 ± 0.23%.
For `CC[C@@]1(O)C[C@H]2[C@@H]3CC[C@H]([C@H](C)CC#N)[C@@]3(C)CC[C@@H]2[C@@]2(C)CC[C@@H](O)C[C@@H]12` [PBT110A, 3α,6β-dihydroxy-6α-ethyl-24-nor-5β-cholan-23-nitrile], on human GPBAR1, the response was half-maximal at 0.66 µM (EC50), the “GPBAR1 (% of activity in comparison to 10 μM TLCA)” value is 65.9 ± 1.69% and the GPBAR1/FXR selectivity came out at 9.9. Moreover, the “FXR (% of activity in comparison to 10 μM CDCA)” value at FXR stood at 6.6 ± 0.065%.
For `CCC[C@]1(O)C[C@H]2[C@@H]3CC[C@H]([C@H](C)CC#N)[C@@]3(C)CC[C@@H]2[C@@]2(C)CC[C@@H](O)C[C@@H]12` [PBT111, 3α,6α-dihydroxy-6β-propyl-24-nor-5β-cholan-23-nitrile], in that order: 1.2 µM, 67.1 ± 2.1%, 21.6 and 3.1 ± 0.29%.
Taken in the same sequence, the figures for `CC(C)[C@]1(O)C[C@@H]2[C@H](CC[C@]3(C)[C@@H]([C@H](C)CC#N)CC[C@@H]23)[C@@]2(C)CC[C@@H](O)C[C@H]21` [PBT112, 3α, 6α-dihydroxy-6β-isopropyl-24-nor-5β-cholane-23-nitrile] were 2.78 µM, 22.2 ± 0.13%, 5.16 and 4.3 ± 0.31%.
Turning to `C=C[C@]1(O)C[C@@H]2[C@H](CC[C@]3(C)[C@@H]([C@H](C)CC#N)CC[C@@H]23)[C@@]2(C)CC[C@@H](O)C[C@H]21` [PBT113, 3α, 6α-dihydroxy-6β-vinyl-24-nor-5β-cholane-23-nitrile], on human GPBAR1, the EC50 is 2.26 µM, the “GPBAR1 (% of activity in comparison to 10 μM TLCA)” value is 62.5 ± 2.18% and the GPBAR1/FXR selectivity is reported as 28.4. The “FXR (% of activity in comparison to 10 μM CDCA)” value at FXR worked out at 2.2 ± 0.5%.
For `C=CCCC[C@]1(O)C[C@H]2[C@@H]3CC[C@H]([C@H](C)CC#N)[C@@]3(C)CC[C@@H]2[C@@]2(C)CC[C@@H](O)C[C@@H]12` [PBT114, 3α, 6α-dihydroxy-6β-(4-Pentenyl)-24-Nor-5β-Cholane-23-Nitrile], in that order: 0.78 µM, 90.1 ± 1.35%, 56.31 and 1.6 ± 0.05%.
For `C[C@H](CC#N)[C@H]1CC[C@H]2[C@@H]3C[C@@](O)(c4ccccc4)[C@@H]4C[C@H](O)CC[C@]4(C)[C@H]3CC[C@]12C` [PBT115, 3α, 6α-dihydroxy-6β-phenyl-24-nor-5β-cholane-23-nitrile], in that order: 4.58 µM, 38.8 ± 1.79%, 2.13 and 18.2 ± 1.08%.
Taken in the same sequence, the figures for `C[C@H](CC#N)[C@H]1CC[C@H]2[C@@H]3C[C@](O)(Cc4ccccc4)[C@@H]4C[C@H](O)CC[C@]4(C)[C@H]3CC[C@]12C` [PBT117, 3α,6β-dihydroxy-6α-benzyl-24-nor-5β-cholane-23-nitrile] were 9.33 µM, 8.3 ± 0.015%, 1.88 and 4.4 ± 0.49%.
